In publication PMC8319832, “Fine-Tuning of Alkaline Residues on the Hydrophilic Face Provides a Non-toxic Cationic α-Helical Antimicrobial Peptide Against Antibiotic-Resistant ESKAPE Pathogens” (Frontiers in Microbiology, 2021):
Values after ≈ are worked out from the molar mass of the structure shown. Where a SMILES comes first, the peptide text is derived from it.

Tests used:
A. baumannii ATCC 19606 = assay: MIC, broth dilution; format: cell-based, Acinetobacter baumannii
Protocol: (§1) All experiments were repeated at least three times.
(§2) To study the influence of physiological ions on the antimicrobial activities of the peptides, The MICs of the peptides were also determined against the standard bacterial strains cultured in MHB containing various salts at their physiological concentrations (150 mM NaCl, 4.5 mM KCl, 1 mM MgCl2, 2 mM CaCl2, 6 μM NH4HCO3, and 4 μM FeCl3) ([Ma et al., 2016]).

[1] = tested on: human embryonic kidney cell 293T (HEK293T); assay: Cytotoxicity, CCK-8; format: cell-based; conditions: up to 40 μg ml^–1, 24 h, CCK-8, OD 450 nm, three independent experiments
Protocol: (§3) The cytotoxicity of the peptide was determined against mouse fibroblast cells L929 and human embryonic kidney cell 293T (HEK293T). Briefly, the cells were seeded at a density of 8,000 cells per well in a 96-well plate and cultured for 24 h in Dulbecco’s Modified Eagle Medium (DMEM, Gibco) supplemented with 10% fetal bovine serum (FBS, Gibco), 2 mM L-glutamine, 100 U ml^–1 penicillin, […] streptomycin (1% P/S, Invitrogen^TM), and at 37°C in a 5% of CO2 atmosphere. Then, different concentrations of the peptide (0, 10, 20, 30, and 40 μg ml^–1) were added into each well and co-incubated with the cells for 24 h. After 2 h incubation with 10 μM 2-(2-methoxy-4-nitrophenyl)-3-(4-nitrophenyl)-5-(2,4-disulfophenyl)-2H-tetrazolium (CCK-8, Yeasen, China), the cytotoxicity of the peptide was determined by measuring the optical density at 450 nm ([Wu et al., 2014]; [Li et al., 2020]).

[2] = tested on: mouse fibroblast cells L929; assay: Cytotoxicity, CCK-8; format: cell-based; conditions: at 40 μg ml^–1, 24 h, CCK-8, OD 450 nm, three independent experiments
Protocol: as §3

E. faecium 898 = assay: MIC, broth dilution; format: cell-based, Enterococcus faecium; conditions: CLSI broth dilution, MHB, 37°C, 20 h, OD630, at least three repeats; clinical isolate
Description: as §1

[3] = tested on: K. pneumoniae ATCC 700603; assay: MIC, broth dilution; format: cell-based, Klebsiella pneumoniae
Protocol: as §1, §2

S. epidermidis 888 = assay: MIC, broth dilution; format: cell-based; conditions: CLSI broth dilution, MHB, 37°C, 20 h, OD630, at least three repeats; clinical isolate
Description: as §1

K. pneumoniae 9126 = assay: MIC, broth dilution; format: cell-based, Klebsiella pneumoniae; conditions: CLSI broth dilution, MHB, 37°C, 20 h, OD630, at least three repeats; clinical isolate, CRE
Description: as §1

S. aureus ATCC29213 = assay: MIC, broth dilution; format: cell-based, Staphylococcus aureus
Outline: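 MICs were determined by broth dilution in MHB supplemented with physiological salts (150 mM NaCl, 4.5 mM KCl, 1 mM MgCl2, 2 mM CaCl2, 6 μM NH4HCO3, 4 μM FeCl3). Each experiment was repeated at least three times.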

[4] = CLSI broth dilution, MHB, 37°C, 20 h, OD630, at least three repeats, standard strain
[5] = salt sensitivity test, MHB, control without addition of salt ions

CC[C@H](C)[C@H](NC(=O)[C@H](CCCCN)NC(=O)[C@H](CCCCN)NC(=O)[C@@H](NC(=O)[C@@H](N)Cc1ccccc1)[C@@H](C)CC)C(=O)N[C@@H](C)C(=O)N[C@@H](CCCCN)C(=O)N[C@@H](CC(C)C)C(=O)N[C@@H](CC(C)C)C(=O)N[C@@H](CCCCN)C(=O)N[C@@H](CCCCN)C(=O)N[C@H](C(=O)N[C@@H](Cc1ccccc1)C(N)=O)[C@@H](C)CC [BmKn2-7K] (H-FIKKIAKLLKKIF-NH2)
MIC (A. baumannii ATCC 19606; [4]): 2.5 µg/mL (≈ 1.57 µM) | MIC (A. baumannii ATCC 19606; MHB with 4 μM FeCl3): 5 µg/mL (≈ 3.15 µM) | MIC (A. baumannii ATCC 19606; MHB with 6 μM NH4HCO3): 5 µg/mL (≈ 3.15 µM) | MIC (A. baumannii ATCC 19606; MHB with 1 mM MgCl2): 2.5 µg/mL (≈ 1.57 µM) | MIC (A. baumannii ATCC 19606; MHB with 2 mM CaCl2): 2.5 µg/mL (≈ 1.57 µM) | MIC (A. baumannii ATCC 19606; MHB with 4.5 mM KCl): 5 µg/mL (≈ 3.15 µM) | MIC (A. baumannii ATCC 19606; MHB with 150 mM NaCl): 2.5 µg/mL (≈ 1.57 µM) | MIC (A. baumannii ATCC 19606; [5]): 2.5 µg/mL | cytotoxicity (cell viability) [1]: non-toxic | cytotoxicity (cell viability) [2]: minor cytotoxicity | MIC (E. faecium 898): 5 µg/mL (≈ 3.15 µM) | MIC [3, 4]: 10 µg/mL (≈ 6.29 µM) | MIC ([3]; MHB with 4 μM FeCl3): 10 µg/mL (≈ 6.29 µM) | MIC ([3]; MHB with 6 μM NH4HCO3): 10 µg/mL (≈ 6.29 µM) | MIC ([3]; MHB with 1 mM MgCl2): 10 µg/mL (≈ 6.29 µM) | MIC ([3]; MHB with 2 mM CaCl2): 10 µg/mL (≈ 6.29 µM) | MIC ([3]; MHB with 4.5 mM KCl): 10 µg/mL (≈ 6.29 µM) | MIC ([3]; MHB with 150 mM NaCl): 5 µg/mL (≈ 3.15 µM) | MIC [3, 5]: 10 µg/mL | MIC (S. epidermidis 888): 2.5 µg/mL (≈ 1.57 µM) | MIC (K. pneumoniae 9126): 5 µg/mL (≈ 3.15 µM) | MIC (S. aureus ATCC29213; MHB with 4 μM FeCl3): 5 µg/mL (≈ 3.15 µM) | MIC (S. aureus ATCC29213; MHB with 6 μM NH4HCO3): 5 µg/mL (≈ 3.15 µM) | MIC (S. aureus ATCC29213; MHB with 1 mM MgCl2): 5 µg/mL (≈ 3.15 µM) | MIC (S. aureus ATCC29213; MHB with 2 mM CaCl2): 5 µg/mL (≈ 3.15 µM) | MIC (S. aureus ATCC29213; MHB with 4.5 mM KCl): 5 µg/mL (≈ 3.15 µM) | MIC (S. aureus ATCC29213; MHB with 150 mM NaCl): 5 µg/mL (≈ 3.15 µM) | MIC (S. aureus ATCC29213; [5]): 5 µg/mL
